Data reported in patent publication US20230374034A1, “NOVEL BICYCLIC COMPOUNDS” (PRISM BIOLAB CO., LTD., priority 2020, published 2023).
Like-named read-outs stand apart in the source and are kept apart here.

Tested on: NICD (Notch intracellular domain) CSL-bla reporter in HeLa cells
Assay: Notch assay (CellSensor T-REx NICD CSL-bla HeLa beta-lactamase reporter; Method 1 / Method 2)
Assay type: cell-based
Conditions: Homo sapiens, 10 μM compound, read-out: inhibiton (%) at 10 μM
Summary of the method: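 HeLa cells carrying doxycycline-inducible NICD and a CSL-driven beta-lactamase reporter, 10^3 cells/well, were treated with compound plus doxycycline for 16-20 h at 37 °C. CCF4-AM substrate was loaded for 4 h at room temperature; background-subtracted blue (460 nm)/green (530 nm) emission ratio taken per well.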

[1] = Method 2 (40 nL of 1000× compound added to plate with Echo)
[2] = Method 1 (10× compound prepared in assay medium, added to plated cells)

SMILES | inhibition at 10 µM [1] [%] | inhibition at 10 µM [2] [%]
CCCC[C@@H](C(=O)NCCCC(C)C)N1CC2N(C(=O)OCCc3ccc(O)cc3)O[C@H](Cc3ccccc3)C(=O)N2[C@@H](Cc2ccc(O)cc2)C1=O (stereo partly drawn) [Compound I-112, 4-hydroxyphenethyl (3R,6S)-3-benzyl-6-(4-hydroxybenzyl)-8-((S)-1-((4-methylpentyl)amino)-1-oxohexan-2-yl)-4,7-dioxohexahydropyrazino[2,1-c][1,2,4]oxadiazine-1(6H)-carboxylate] | 54.2 | –
C[C@H]1C(=O)N(CCC(c2ccccc2)c2ccccc2)CC2N(C(=O)OCC3CCCCC3)O[C@H](CCCNC(=N)N)C(=O)N21 (stereo partly drawn) [Compound I-53, (3R,6S)-cyclohexylmethyl 8-(3,3-diphenylpropyl)-3-(3-guanidinopropyl)-6-methyl-4,7-dioxohexahydropyrazino[2,1-c][1,2,4]oxadiazine-1(6H)-carboxylate] | 53.6 | –
CCCCCN1CC2N(C(=O)OCC3CCCCC3)O[C@H](Cc3ccccc3)C(=O)N2[C@@H](CCCCN)C1=O (stereo partly drawn) [Compound I-28, (3R,6S)-cyclohexylmethyl 6-(4-aminobutyl)-3-benzyl-4,7-dioxo-8-pentylhexahydropyrazino [2,1-c][1,2,4]oxadiazine-1(6H)-carboxylate] | 99.7 | –
CC(C)C[C@H]1ON(C(=O)OCc2ccccc2)C2CN(C3CCN(C)CC3)C(=O)[C@H](CCCCNC3CN(C(=O)OC(C)(C)C)C3)N2C1=O (stereo partly drawn) [Compound I-146, benzyl (3R,6S)-6-(4-((1-(tert-butoxycarbonyl)azetidin-3-yl)amino)butyl)-3-isobutyl-8-(1-methylpiperidin-4-yl)-4,7-dioxohexahydropyrazino[2,1-c][1,2,4]oxadiazine-1(6H)-carboxylate] | 105 | –
CC[C@H](C)CN1CC2N(C(=O)OCC3CCCCC3)O[C@H](CC(C)C)C(=O)N2[C@@H](CCCCN)C1=O (stereo partly drawn) [Compound I-31, (3R,6S)-cyclohexylmethyl 6-(4-aminobutyl)-3-isobutyl-8-((S)-2-methylbutyl)-4,7-dioxohexahydropyrazino[2,1-c][1,2,4]oxadiazine-1(6H)-carboxylate] | 67.1 | –
CC(C)C[C@H]1ON(C(=O)OCc2ccccc2)[C@H]2CN(C3CCN(C)CC3)C(=O)[C@H](CCCCNCc3ccc4ccccc4n3)N2C1=O [Compound I-145, benzyl (3R,6S,9aS)-3-isobutyl-8-(1-methylpiperidin-4-yl)-4,7-dioxo-6-(4-((quinolin-2-ylmethyl)amino)butyl) hexahydropyrazino[2,1-c][1,2,4]oxadiazine-1(6H)-carboxylate] | 89 | –
C[C@H]1C(=O)N(Cc2cccc3ccccc23)CC2N(C(=O)OCC3CCCCC3)O[C@H](CCCNC(=N)N)C(=O)N21 (stereo partly drawn) [Compound I-52, (3R,6S)-cyclohexylmethyl 3-(3-guanidinopropyl)-6-methyl-8-(naphthalen-1-ylmethyl)-4,7-dioxohexahydropyrazino[2,1-c][1,2,4]oxadiazine-1(6H)-carboxylate] | 51.4 | –
CC(C)CCN1CC2N(C(=O)OCc3cccc4ccccc34)O[C@H](Cc3ccccc3)C(=O)N2[C@@H](C)C1=O (stereo partly drawn) [Compound I-15, (3R,6S)-naphthalen-1-ylmethyl 3-benzyl-8-isopentyl-6-methyl-4,7-dioxohexahydropyrazino[2,1-c][1,2,4]oxadiazine-1(6H)-carboxylate] | – | 52.6
CCCC[C@H]1ON(C(=O)OCc2cccc3ccccc23)C2CN(CC3CCCCC3)C(=O)[C@H](Cc3ccc(O)cc3)N2C1=O (stereo partly drawn) [Compound I-10, (3R,6S)-naphthalen-1-ylmethyl 3-butyl-8-(cyclohexylmethyl)-6-(4-hydroxybenzyl)-4,7-dioxohexahydropyrazino[2,1-c][1,2,4]oxadiazine-1(6H)-carboxylate] | – | 57.2
CCCC[C@H]1C(=O)N(CC2CCCCC2)CC2N(C(=O)OCc3cccc4ccccc34)O[C@@H](CC(N)=O)C(=O)N21 (stereo partly drawn) [Compound I-26, (3S,6S)-naphthalen-1-ylmethyl 3-(2-amino-2-oxoethyl)-6-butyl-8-(cyclohexylmethyl)-4,7-dioxohexahydropyrazino[2,1-c][1,2,4]oxadiazine-1(6H)-carboxylate] | – | 68.4
